Test results published in ChEMBL document CHEMBL1201862, “PubChem BioAssay data set” (2004).
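Step 1: Grow cells in 96-well plates. Step 2: Expose to compound for 48 hours at 5 concentrations. Step 3: Interpolate endpoints linearly; if unreached, use highest concentration. Abbreviation: GI50, concentration required for 50% inhibition of growth.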 Calls of active or inactive are those of the source. Cut-off read from the data, not from the text of the source: active = GI50 up to about 1.1 µM and inactive = higher.

What was measured:
Assay in all cases: NCI tumour cell line growth inhibition, 48 h
[1] = system: DLD-1
[2] = system: DMS-114
[3] = system: DMS-273
[4] = system: HOP-18
[5] = system: KM-20L2
[6] = system: LXFL 529
[7] = system: SNB-78
[8] = system: XF498
[9] = system: RXF 631

Compound | GI50 [1] | GI50 [2] | GI50 [3] | GI50 [4] | GI50 [5] | GI50 [6] | GI50 [7] | GI50 [8] | GI50 [9]
O=C1N(c2ccccc2)C2(O)C(=O)c3ccccc3C2(O)N1c1ccccc1 (stereo unspecified) | > 100 µM (inactive) | > 100 µM (inactive) | > 100 µM (inactive) | > 100 µM (inactive) | > 100 µM (inactive) | > 100 µM (inactive) | > 100 µM (inactive) | – | –
COc1ccc2c(c1)[C@@H](NC(C)=O)CCc1cc(OC)c(OC)c(OC)c1-2 | < 0.0138 µM (active) | 0.0118 µM (active) | < 0.01 µM (active) | > 100 µM (inactive) | 0.0117 µM (active) | < 0.0137 µM (active) | 0.0107 µM (active) | 0.0137 µM (active) | –
CS(=O)(=O)OCCCCOS(C)(=O)=O [BUSULFAN] | > 236 µM (inactive) | 225 µM (inactive) | 191 µM (inactive) | > 200 µM (inactive) | > 234 µM (inactive) | > 250 µM (inactive) | 212 µM (inactive) | – | –
CCCc1c[nH]c(-c2ccc(-c3cc(CCC)c(C=O)[nH]3)s2)c1 | 15 µM (inactive) | 14.1 µM (inactive) | 14.9 µM (inactive) | 27.7 µM (inactive) | – | 18.8 µM (inactive) | 20.1 µM (inactive) | 18.7 µM (inactive) | –
Clc1ccc(C[P+]2(c3ccccc3)CCCCC2)cc1.[O-][Cl+3]([O-])([O-])[O-] | > 100 µM (inactive) | 50.4 µM (inactive) | 57.5 µM (inactive) | > 100 µM (inactive) | 54.6 µM (inactive) | 37.1 µM (inactive) | 52.4 µM (inactive) | 44 µM (inactive) | –
O=[N+]([O-])c1cc(C2SCc3nc4ccccc4n32)ccc1Cl (stereo unspecified) | 26.1 µM (inactive) | 20.1 µM (inactive) | 24.2 µM (inactive) | 76.7 µM (inactive) | – | 23.1 µM (inactive) | 23.2 µM (inactive) | – | –
Cc1cc(C)cc(-n2c3nc(=O)n(C)c(=O)c-3nc3ccccc32)c1 | – | 13.4 µM (inactive) | 16.7 µM (inactive) | > 100 µM (inactive) | 19.4 µM (inactive) | 48.4 µM (inactive) | 35.6 µM (inactive) | 36.3 µM (inactive) | 22.5 µM (inactive)
CCc1ccc(Cc2ccc(CC)c(NC(=O)C(=O)C3NC(=S)NC3=O)c2CC)c(CC)c1NC(=O)C(=O)C1NC(=S)NC1=O (stereo unspecified) | > 100 µM (inactive) | – | > 100 µM (inactive) | – | > 100 µM (inactive) | > 100 µM (inactive) | > 100 µM (inactive) | – | > 100 µM (inactive)
Nc1ccccc1SC(/C=C/NNC1=NN=C(c2ccccc2)C(c2ccccc2)N1)c1ccccc1 (stereo unspecified) | 12.9 µM (inactive) | 13.6 µM (inactive) | 16.9 µM (inactive) | – | 21 µM (inactive) | – | 18 µM (inactive) | – | –
CCn1cc(C(=O)O)c(=O)c2cc(F)c(N3CCNCC3)nc21 [ENOXACIN] | > 100 µM (inactive) | > 100 µM (inactive) | > 100 µM (inactive) | > 100 µM (inactive) | – | > 100 µM (inactive) | > 100 µM (inactive) | – | > 100 µM (inactive)
CCC1CC2C(=O)N(c3ccccc3)C(=O)C2c2[nH]c3ccccc3c21 (stereo unspecified) | 24 µM (inactive) | 13.9 µM (inactive) | > 10 µM (inactive) | 14.3 µM (inactive) | – | 20.2 µM (inactive) | 26.6 µM (inactive) | 16.7 µM (inactive) | 13.3 µM (inactive)
COc1cc2c(c(OC(C)=O)c1OC(C)=O)-c1ccc(SC)c(=O)cc1C(NC(C)=O)CC2 (stereo unspecified) | 3.91 µM (inactive) | 0.618 µM (active) | 1.41 µM (inactive) | > 91 µM (inactive) | 1.85 µM (inactive) | 0.955 µM (active) | 0.48 µM (active) | 2.75 µM (inactive) | –
Cc1ccc(C2=[N+]([O-])c3ccccc3C2=O)cc1 | 21.9 µM (inactive) | 14.5 µM (inactive) | – | 27.4 µM (inactive) | 40.4 µM (inactive) | 8.49 µM (inactive) | 31.7 µM (inactive) | 12.9 µM (inactive) | 22.2 µM (inactive)
CC1=C(C(=O)Nc2cc(=O)n(C)c(=O)n2C)C(c2ccc([N+](=O)[O-])cc2)C(C(=O)Nc2cc(=O)n(C)c(=O)n2C)=C(C)N1 | 90.8 µM (inactive) | 73.5 µM (inactive) | – | 51.5 µM (inactive) | > 100 µM (inactive) | 51.8 µM (inactive) | > 100 µM (inactive) | 8.97 µM (inactive) | > 100 µM (inactive)
O=S1(=O)c2cc(S(=O)(=O)n3ccnc3)ccc2NC2=NCCCN21 | 28.1 µM (inactive) | 22.1 µM (inactive) | – | 42.2 µM (inactive) | 22.3 µM (inactive) | 31.5 µM (inactive) | – | – | –
O=C1c2ccccc2S[C@@H](O)[C@@H]2CCCN12 | > 100 µM (inactive) | > 100 µM (inactive) | > 100 µM (inactive) | > 100 µM (inactive) | > 100 µM (inactive) | > 100 µM (inactive) | > 100 µM (inactive) | 39.6 µM (inactive) | –
CC(=O)CC(=O)Nc1ccccc1C(F)(F)F | > 100 µM (inactive) | > 100 µM (inactive) | – | – | > 100 µM (inactive) | > 100 µM (inactive) | > 100 µM (inactive) | > 100 µM (inactive) | > 100 µM (inactive)
FC(F)(F)c1ccccc1/C=N/C12CC3CC(CC(C3)C1)C2 | – | > 100 µM (inactive) | > 100 µM (inactive) | – | > 100 µM (inactive) | – | > 100 µM (inactive) | > 100 µM (inactive) | –
